Experiments:
PTK2B (human) = PTK2B (human) (UniProt Q14289); assay: KINOMEscan competition binding; conditions: compound 10.0 µM
SLK (human) = SLK (human) (UniProt Q9H2G2); assay: KINOMEscan competition binding; conditions: compound 10.0 µM
MYLK (human) = MYLK (human) (UniProt Q15746); assay: KINOMEscan competition binding; conditions: compound 10.0 µM
[1] = tested on: EGFR (human), P00533 [P753S; 747-752 del]; assay: KINOMEscan competition binding; conditions: compound 10.0 µM
RPS6KA6 KD2 (human) = RPS6KA6 KD2 (human) (UniProt Q9UK32); assay: KINOMEscan competition binding; conditions: compound 10.0 µM
[2] = tested on: EGFR (human), P00533 [G719C; 746-750 del]; assay: KINOMEscan competition binding; conditions: compound 10.0 µM
PTK2 (human) = PTK2 (human) (UniProt Q05397); assay: KINOMEscan competition binding; conditions: compound 10.0 µM
PLK3 (human) = PLK3 (human) (UniProt Q9H4B4); assay: KINOMEscan competition binding; conditions: compound 10.0 µM
[3] = tested on: EGFR (human), P00533 [A750P; 747-749 del]; assay: KINOMEscan competition binding; conditions: compound 10.0 µM
ALK (human) = ALK (human) (UniProt Q9UM73); assay: KINOMEscan competition binding; conditions: compound 10.0 µM
DCLK2 (human) = DCLK2 (human) (UniProt Q8N568); assay: KINOMEscan competition binding; conditions: compound 10.0 µM
DCLK1 (human) = DCLK1 (human) (UniProt O15075); assay: KINOMEscan competition binding; conditions: compound 10.0 µM
PLK1 (human) = PLK1 (human) (UniProt P53350); assay: KINOMEscan competition binding; conditions: compound 10.0 µM
[4] = tested on: EGFR (human), P00533 [L861Q]; assay: KINOMEscan competition binding; conditions: compound 10.0 µM
GAK (human) = GAK (human) (UniProt O14976); assay: KINOMEscan competition binding; conditions: compound 10.0 µM
ULK2 (human) = ULK2 (human) (UniProt Q8IYT8); assay: KINOMEscan competition binding; conditions: compound 10.0 µM
[5] = tested on: EGFR (human), P00533 [747-751 del / S ins]; assay: KINOMEscan competition binding; conditions: compound 10.0 µM
IGF1R (human) = IGF1R (human) (UniProt P08069); assay: KINOMEscan competition binding; conditions: compound 10.0 µM
INSRR (human) = INSRR (human) (UniProt P14616); assay: KINOMEscan competition binding; conditions: compound 10.0 µM
CAMKK2 (human) = CAMKK2 (human) (UniProt Q96RR4); assay: KINOMEscan competition binding; conditions: compound 10.0 µM
PLK4 (human) = PLK4 (human) (UniProt O00444); assay: KINOMEscan competition binding; conditions: compound 10.0 µM
STK33 (human) = STK33 (human) (UniProt Q9BYT3); assay: KINOMEscan competition binding; conditions: compound 10.0 µM
TTK (human) [6] = target: TTK (human) (UniProt P33981); assay: KINOMEscan competition binding; conditions: for kinase still bound, per cent of control: compound 10.0 µM
RPS6KA2 KD2 (human) = RPS6KA2 KD2 (human) (UniProt Q15349); assay: KINOMEscan competition binding; conditions: compound 10.0 µM
DAPK1 (human) = DAPK1 (human) (UniProt P53355); assay: KINOMEscan competition binding; conditions: compound 10.0 µM
STK10 (human) = STK10 (human) (UniProt O94804); assay: KINOMEscan competition binding; conditions: compound 10.0 µM
FER (human) = FER (human) (UniProt P16591); assay: KINOMEscan competition binding; conditions: compound 10.0 µM
CLK2 (human) = CLK2 (human) (UniProt P49760); assay: KINOMEscan competition binding; conditions: compound 10.0 µM
PRKD3 (human) = PRKD3 (human) (UniProt O94806); assay: KINOMEscan competition binding; conditions: compound 10.0 µM
CAMK1D (human) = CAMK1D (human) (UniProt Q8IU85); assay: KINOMEscan competition binding; conditions: compound 10.0 µM
CAMK2G (human) = CAMK2G (human) (UniProt Q13555); assay: KINOMEscan competition binding; conditions: compound 10.0 µM
DAPK3 (human) = DAPK3 (human) (UniProt O43293); assay: KINOMEscan competition binding; conditions: compound 10.0 µM
RPS6KA1 KD2 (human) = RPS6KA1 KD2 (human) (UniProt Q15418); assay: KINOMEscan competition binding; conditions: compound 10.0 µM
[7] = target: JAK1 JH2 pseudokinase (human) (UniProt P23458); assay: KINOMEscan competition binding; conditions: compound 10.0 µM
CAMK2A (human) = CAMK2A (human) (UniProt Q9UQM7); assay: KINOMEscan competition binding; conditions: compound 10.0 µM
CLK1 (human) = CLK1 (human) (UniProt P49759); assay: KINOMEscan competition binding; conditions: compound 10.0 µM
TTK (human) [8] = target: TTK (human) (UniProt P33981); assay: SelectScreen, TR FRET

Sequence of TTK (human) (P33981 whole entry, looked up): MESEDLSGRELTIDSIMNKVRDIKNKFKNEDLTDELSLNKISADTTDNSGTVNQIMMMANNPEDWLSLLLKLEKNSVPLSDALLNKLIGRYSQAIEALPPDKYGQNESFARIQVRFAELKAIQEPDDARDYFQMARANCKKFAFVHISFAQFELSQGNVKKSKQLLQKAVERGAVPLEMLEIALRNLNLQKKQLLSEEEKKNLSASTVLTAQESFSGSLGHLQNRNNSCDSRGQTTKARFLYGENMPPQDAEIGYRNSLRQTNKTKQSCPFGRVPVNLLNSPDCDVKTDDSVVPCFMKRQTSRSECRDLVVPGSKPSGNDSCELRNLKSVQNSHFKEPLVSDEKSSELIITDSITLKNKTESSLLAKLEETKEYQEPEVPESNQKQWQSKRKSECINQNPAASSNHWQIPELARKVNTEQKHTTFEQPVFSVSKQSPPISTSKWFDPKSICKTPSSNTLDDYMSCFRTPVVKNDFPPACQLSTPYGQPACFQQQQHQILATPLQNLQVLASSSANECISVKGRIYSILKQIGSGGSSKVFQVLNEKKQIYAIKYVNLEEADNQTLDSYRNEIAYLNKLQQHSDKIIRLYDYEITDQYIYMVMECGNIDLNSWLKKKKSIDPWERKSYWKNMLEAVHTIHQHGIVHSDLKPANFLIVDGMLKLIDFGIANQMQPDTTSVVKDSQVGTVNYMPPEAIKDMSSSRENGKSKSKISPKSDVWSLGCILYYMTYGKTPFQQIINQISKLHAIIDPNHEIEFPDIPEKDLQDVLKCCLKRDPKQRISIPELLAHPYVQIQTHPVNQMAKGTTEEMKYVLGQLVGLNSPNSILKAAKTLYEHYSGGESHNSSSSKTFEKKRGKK
Sequence of PTK2 (human) (Q05397 whole entry, looked up): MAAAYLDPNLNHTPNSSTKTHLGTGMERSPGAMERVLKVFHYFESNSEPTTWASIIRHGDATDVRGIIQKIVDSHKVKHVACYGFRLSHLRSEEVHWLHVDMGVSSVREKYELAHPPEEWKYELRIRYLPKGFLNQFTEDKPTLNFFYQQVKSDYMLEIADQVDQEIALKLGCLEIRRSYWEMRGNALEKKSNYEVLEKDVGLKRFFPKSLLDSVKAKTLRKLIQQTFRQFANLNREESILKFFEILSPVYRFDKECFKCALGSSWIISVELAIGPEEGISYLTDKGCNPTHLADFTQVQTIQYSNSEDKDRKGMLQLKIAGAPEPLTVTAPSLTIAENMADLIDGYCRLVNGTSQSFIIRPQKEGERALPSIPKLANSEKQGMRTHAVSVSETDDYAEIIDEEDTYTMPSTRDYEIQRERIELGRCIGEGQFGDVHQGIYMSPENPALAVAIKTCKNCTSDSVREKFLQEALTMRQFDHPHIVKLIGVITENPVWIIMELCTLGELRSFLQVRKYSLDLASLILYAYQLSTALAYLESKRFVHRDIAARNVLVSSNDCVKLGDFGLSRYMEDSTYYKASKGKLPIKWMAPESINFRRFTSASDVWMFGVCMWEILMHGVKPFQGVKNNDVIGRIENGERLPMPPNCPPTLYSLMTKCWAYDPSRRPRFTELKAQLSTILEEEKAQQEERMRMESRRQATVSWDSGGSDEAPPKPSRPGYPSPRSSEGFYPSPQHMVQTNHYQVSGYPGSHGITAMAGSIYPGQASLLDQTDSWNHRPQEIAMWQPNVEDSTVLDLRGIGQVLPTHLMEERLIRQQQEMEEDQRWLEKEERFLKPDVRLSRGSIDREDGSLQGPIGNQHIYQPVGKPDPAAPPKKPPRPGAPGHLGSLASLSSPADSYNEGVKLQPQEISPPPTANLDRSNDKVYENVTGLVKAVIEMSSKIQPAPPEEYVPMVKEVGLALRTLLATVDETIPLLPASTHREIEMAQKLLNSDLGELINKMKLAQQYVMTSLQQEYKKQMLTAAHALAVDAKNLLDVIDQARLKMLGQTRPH
Sequence of PTK2B (human) (Q14289 whole entry, looked up): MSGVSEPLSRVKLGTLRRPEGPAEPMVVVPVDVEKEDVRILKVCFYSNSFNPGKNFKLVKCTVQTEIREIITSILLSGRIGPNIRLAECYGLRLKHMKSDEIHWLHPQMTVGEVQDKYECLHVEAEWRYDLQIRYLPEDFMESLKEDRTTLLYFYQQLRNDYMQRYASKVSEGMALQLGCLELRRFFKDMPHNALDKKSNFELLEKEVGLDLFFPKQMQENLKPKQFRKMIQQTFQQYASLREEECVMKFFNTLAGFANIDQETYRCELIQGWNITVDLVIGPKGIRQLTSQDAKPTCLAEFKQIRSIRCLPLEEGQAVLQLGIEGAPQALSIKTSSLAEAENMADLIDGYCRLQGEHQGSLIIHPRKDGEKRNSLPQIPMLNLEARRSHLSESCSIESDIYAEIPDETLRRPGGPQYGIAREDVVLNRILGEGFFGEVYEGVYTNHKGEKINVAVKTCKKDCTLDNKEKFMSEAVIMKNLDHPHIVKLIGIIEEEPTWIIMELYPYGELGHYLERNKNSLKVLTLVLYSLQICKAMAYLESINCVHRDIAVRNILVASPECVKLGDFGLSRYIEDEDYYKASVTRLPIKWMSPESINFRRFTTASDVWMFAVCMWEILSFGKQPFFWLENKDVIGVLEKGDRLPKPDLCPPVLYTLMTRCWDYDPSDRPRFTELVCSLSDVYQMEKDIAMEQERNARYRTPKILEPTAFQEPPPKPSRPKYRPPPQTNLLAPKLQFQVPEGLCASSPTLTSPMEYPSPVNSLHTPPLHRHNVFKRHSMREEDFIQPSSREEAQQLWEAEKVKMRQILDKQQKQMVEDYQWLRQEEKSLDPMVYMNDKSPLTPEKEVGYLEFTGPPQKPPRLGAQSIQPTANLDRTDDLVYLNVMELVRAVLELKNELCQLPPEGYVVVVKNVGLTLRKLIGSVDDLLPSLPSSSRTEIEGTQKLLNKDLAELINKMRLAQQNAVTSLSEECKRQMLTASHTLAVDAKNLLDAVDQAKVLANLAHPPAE
Sequence of IGF1R (human) (P08069 whole entry, looked up): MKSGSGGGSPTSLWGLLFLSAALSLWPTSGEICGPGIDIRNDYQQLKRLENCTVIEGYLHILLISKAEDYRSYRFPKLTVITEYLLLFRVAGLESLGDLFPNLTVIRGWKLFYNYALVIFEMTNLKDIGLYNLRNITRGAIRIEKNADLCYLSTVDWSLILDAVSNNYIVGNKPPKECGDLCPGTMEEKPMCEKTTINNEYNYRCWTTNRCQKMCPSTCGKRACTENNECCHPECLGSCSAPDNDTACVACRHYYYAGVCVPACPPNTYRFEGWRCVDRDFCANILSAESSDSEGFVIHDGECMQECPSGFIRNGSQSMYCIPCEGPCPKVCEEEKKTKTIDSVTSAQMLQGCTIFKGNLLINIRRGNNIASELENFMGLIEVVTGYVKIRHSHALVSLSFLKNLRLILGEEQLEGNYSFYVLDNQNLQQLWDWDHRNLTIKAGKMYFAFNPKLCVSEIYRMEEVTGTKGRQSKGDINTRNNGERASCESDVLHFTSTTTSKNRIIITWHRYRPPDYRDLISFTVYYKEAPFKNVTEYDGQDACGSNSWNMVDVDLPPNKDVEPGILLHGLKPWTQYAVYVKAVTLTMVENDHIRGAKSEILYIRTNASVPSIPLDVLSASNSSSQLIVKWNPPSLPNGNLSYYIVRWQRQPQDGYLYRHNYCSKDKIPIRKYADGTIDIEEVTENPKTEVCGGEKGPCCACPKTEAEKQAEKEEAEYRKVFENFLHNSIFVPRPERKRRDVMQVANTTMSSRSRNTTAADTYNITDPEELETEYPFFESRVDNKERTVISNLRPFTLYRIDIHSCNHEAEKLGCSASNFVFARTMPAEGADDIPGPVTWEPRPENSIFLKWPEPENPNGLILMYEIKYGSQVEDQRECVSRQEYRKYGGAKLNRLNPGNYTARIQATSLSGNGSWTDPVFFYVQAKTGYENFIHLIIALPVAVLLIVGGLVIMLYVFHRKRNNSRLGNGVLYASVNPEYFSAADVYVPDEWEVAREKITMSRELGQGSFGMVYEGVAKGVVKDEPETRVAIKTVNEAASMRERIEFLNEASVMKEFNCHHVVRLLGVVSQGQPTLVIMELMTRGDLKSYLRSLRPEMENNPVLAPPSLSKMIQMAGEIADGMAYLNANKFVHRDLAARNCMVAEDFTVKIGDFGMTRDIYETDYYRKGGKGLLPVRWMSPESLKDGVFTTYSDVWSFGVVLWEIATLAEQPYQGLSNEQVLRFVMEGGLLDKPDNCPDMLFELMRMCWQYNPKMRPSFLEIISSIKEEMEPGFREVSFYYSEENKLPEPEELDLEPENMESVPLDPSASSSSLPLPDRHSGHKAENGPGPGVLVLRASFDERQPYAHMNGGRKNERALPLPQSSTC
Sequence of CAMKK2 (human) (Q96RR4 whole entry, looked up): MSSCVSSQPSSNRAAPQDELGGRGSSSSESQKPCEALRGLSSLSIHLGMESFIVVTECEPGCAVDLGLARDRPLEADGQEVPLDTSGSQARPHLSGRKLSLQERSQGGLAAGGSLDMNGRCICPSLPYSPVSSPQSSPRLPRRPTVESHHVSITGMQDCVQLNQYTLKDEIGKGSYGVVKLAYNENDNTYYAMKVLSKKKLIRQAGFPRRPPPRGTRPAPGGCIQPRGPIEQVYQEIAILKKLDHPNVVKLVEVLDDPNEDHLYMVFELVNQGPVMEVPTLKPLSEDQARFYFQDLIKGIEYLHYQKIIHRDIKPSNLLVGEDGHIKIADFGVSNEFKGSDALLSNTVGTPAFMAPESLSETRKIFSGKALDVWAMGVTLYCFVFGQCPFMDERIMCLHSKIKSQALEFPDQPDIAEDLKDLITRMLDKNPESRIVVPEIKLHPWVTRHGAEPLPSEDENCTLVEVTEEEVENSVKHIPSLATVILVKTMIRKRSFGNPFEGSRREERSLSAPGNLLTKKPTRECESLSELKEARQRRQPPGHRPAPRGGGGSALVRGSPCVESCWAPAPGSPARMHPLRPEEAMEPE

kinase still bound, per cent of control (PTK2B (human)) [%] | kinase still bound, per cent of control (SLK (human)) [%] | kinase still bound, per cent of control (MYLK (human)) [%] | kinase still bound, per cent of control (RPS6KA6 KD2 (human)) [%] | kinase still bound, per cent of control (PTK2 (human)) [%] | kinase still bound, per cent of control (PLK3 (human)) [%] | kinase still bound, per cent of control (ALK (human)) [%] | kinase still bound, per cent of control (DCLK2 (human)) [%] | kinase still bound, per cent of control (DCLK1 (human)) [%] | kinase still bound, per cent of control (PLK1 (human)) [%] | kinase still bound, per cent of control (GAK (human)) [%] | kinase still bound, per cent of control (IGF1R (human)) [%] | kinase still bound, per cent of control (INSRR (human)) [%] | kinase still bound, per cent of control (CAMKK2 (human)) [%] | kinase still bound, per cent of control (STK33 (human)) [%] | kinase still bound, per cent of control (TTK (human) [6]) [%] | kinase still bound, per cent of control (RPS6KA2 KD2 (human)) [%] | SMILES | further results
4.2 | 5.6 | 11 | 33 | 1.2 | 5.9 | 5 | 30 | 5.2 | 7.2 | 1.6 | 29 | 33 | 33 | 9 | 2 | 16 | COc1cc(N2CCC(N3CCN(C)CC3)CC2)ccc1Nc1ncc2c(n1)N(C1CCCC1)C(C)CC(=O)N2C (stereo not given) | kinase still bound, per cent of control [1]: 34%; kinase still bound, per cent of control [2]: 32%; kinase still bound, per cent of control [3]: 27%; kinase still bound, per cent of control [4]: 30%; kinase still bound, per cent of control (ULK2 (human)): 24%; kinase still bound, per cent of control [5]: 34%; kinase still bound, per cent of control (PLK4 (human)): 26%
13 | 1.4 | 2.8 | 12 | 0.4 | 0 | 6.2 | 19 | 4 | 19 | 3.8 | 32 | 26 | 24 | 3.6 | 4.6 | 5.8 | COc1cc(C(=O)NC2CCN(C)CC2)ccc1Nc1ncc2c(n1)N(C1CCCC1)C(C)CC(=O)N2C (stereo not given) | kinase still bound, per cent of control (DAPK1 (human)): 26%; kinase still bound, per cent of control (STK10 (human)): 29%; kinase still bound, per cent of control (FER (human)): 31%; kinase still bound, per cent of control (CLK2 (human)): 6.2%; kinase still bound, per cent of control (PRKD3 (human)): 32%; kinase still bound, per cent of control (CAMK1D (human)): 17%; kinase still bound, per cent of control (CAMK2G (human)): 34%; kinase still bound, per cent of control (DAPK3 (human)): 17%; kinase still bound, per cent of control (RPS6KA1 KD2 (human)): 22%; kinase still bound, per cent of control [7]: 22%; kinase still bound, per cent of control (CAMK2A (human)): 21%; kinase still bound, per cent of control (CLK1 (human)): 18%; Kd (TTK (human) [6]): 1.43 µM; IC50 (TTK (human) [8]): 5.04 µM

Source: the kinase profiling compilation of Christmann-Franck et al. (2016)
